Source: US11752132B2, “Materials and methods for improving gastrointestinal function” (University of Florida Research Foundation, Incorporated, priority 2010, dated 2023)
“And” between values parts separate entries of the source, which are not always exact repeats. Identical values can stand only once. “Also recorded” adds a separate entry of the source. Like-named read-outs stand apart in the source and are kept apart here.

Assays:
small intestine mucosa = conditions: mouse, in vivo
Protocol: Following each injection, transepithelial ISC, an indicator of net anion secretion, is measured using an Ussing chamber, at time points as indicated in FIG. 20. For each measurement, a minimum of 32 tissues is examined.

[1] = test system: jejunum (HCO3^− secretion); experiment: pH stat measurement of HCO3^− secretion in stripped jejunal sheets; format: cell-based, mice; conditions: for forskolin-stimulated HCO3^− secretion after blocker: 0 Gy + forskolin, blocker on luminal side (100 μM glibenclamide; NPPB)
Protocol: A Bi-burette TIM 856 (Radiometer Analytical SAS, Villeurbanne, France) was used to measure HCO3^− secretion in stripped jejunal sheets (Vidyasagar et al. 2005; Vidyasagar et al. 2004; Zhang et al. 2007). Automated pumps maintained a constant pH for luminal solution through the addition of 0.01 μl of 0.025 M sulfuric acid (H2SO4). Standard-to-stat pH calibration was established by adding a known quantity of H2SO4 to a weak buffering solution, which contains an increasing concentration of HCO3^− to produce a linear titration curve.
Jejunal tissues were exposed to a buffered solution on the bath side (serosal side), while the luminal side was exposed to an HCO3^− free, low-buffered solution (0.1-mM HEPES (4-(2-hydroxyethyl)-1-piperazineethanesulfonic acid) buffer, pH 7.4). The HCO3^− secretion was equivalent to the amount of acid added to the luminal solution to maintain the pH at 7.4 (or the stat pH). All experiments were performed under voltage-clamp conditions. HCO3^−-free solution was gassed with 100% O2 and HCO3^−-containing solution was gassed with 95% O2 and 5% CO2. The HCO3^− secretion was expressed as μeq h^−1·cm^−2 (Vidyasagar et al. 2005; Vidyasagar et al. 2004; Zhang et al. 2007).
After the tissue was mounted, HCO3^− secretions were initially present in the absence of bath HCO3^−, but rapidly fell towards 0 within 20-30 minutes. If bath HCO3^− was not present during the titration, the HCO3^− secretion remained close to 0. […] When inhibitors were added to the mucosal solution, the pH was adjusted and allowed to equilibrate for 30 minutes, until a steady rate of HCO3^− secretion was observed. When the inhibitor was added to the bath side, the tissue was also equilibrated for 30 minutes to achieve a steady rate of HCO3^− secretion (see Table 3).
All experiments were performed during the initial 1-hour steady-state period. 1 tissue from each animal was used for each experiment; only 1 experimental condition was studied with each tissue sample. All experiments were repeated for at least 4 times.

[2] = test system: jejunal mucosa (net anion secretion); experiment: Ussing chamber transepithelial short circuit current (Isc) with transport blockers/forskolin; format: cell-based, mice; conditions: 10 μM bumetanide
[3] = test system: jejunal mucosa (net anion secretion); experiment: as above; format: cell-based, mice; conditions: for basal Isc after bumetanide: 100 μM bumetanide in bath solution
Excerpt: To study active HCO3^− secretion, 8-week-old, non-irradiated and irradiated, male BALB/c mice were obtained from the National Cancer Institute. Mice were randomly divided into groups, and abdomens were irradiated according to the gastrointestinal acute radiation syndrome (GI ARS) model with a Shepherd Mark-I, using a ^137Cs source delivering γ-irradiation at 1.84 Gy/min. Radiation was given as a single fraction. The GI ARS model will achieve maximum radiation damage to intestinal tissues, and mimics intestinal injury during radiation therapy of pelvic or abdominal tumors.
Changes in short circuit current (Isc), both as a function of time following radiation and with increasing doses of radiation, were examined to determine the earliest time and the minimum radiation dose required to produce significant changes in Isc. These studies were approved by the University of Rochester Animal Care and Use Committee.
Following exsanguinations, jejunal segment was obtained by excluding the distal 12 cm of small intestine adjacent to the caecum. This segment was washed and flushed in ice-cold Ringer's solution before the mucosa was stripped from the underlying muscular layers (Zhang, Ameen et al. 2007). The mucosa was mounted between the 2 halves of an Ussing-type Lucite chamber with an area of 0.30 cm^2 (P2304, Physiologic instruments, San Diego, Calif. 92128 USA), and electrical parameters were recorded using a voltage/current clamp device (VCC MC-8, Physiologic instruments, San Diego, Calif. 92128 USA) (Vidyasagar et al. 2005; Vidyasagar et al. 2004; Zhang et al. 2007; Vidyasagar and Ramakrishna 2002).
To determine the contribution of NKCC1 to basal Isc, 100 μM bumetanide (Sigma-Aldrich Co., USA) was added to the bath solution.
To determine whether the bumetanide-insensitive portion of Isc occurs via an apical membrane anion channel, a non-specific anion channel blocker, 5-nitro-2-(3-phenylpropylamino)-benzoic acid (Sigma-Aldrich Co., USA) (10 μM NPPB), and a specific cystic fibrosis transmembrane conductance regulator (CFTR) blocker (100 μM glibenclamide, Sigma-Aldrich Co., USA) were applied.

glutamine transporter = experiment: Glutamine-stimulated Isc / saturation kinetics of glutamine transporter; format: cell-based, mice; conditions: increasing IR dose
[4] = test system: mice with injury to small intestine mucosa; experiment: Oral administration of candidate nutrients in radiation, chemotherapy and Crohn's disease models
Protocol: In a Crohn's disease model, mice are injected with anti-CD3 mAb (acute inflammatory model to mimic conditions of Crohn's disease).
The alterations of absorptive capacity of nutrients are determined using disease models with injury to small intestine mucosa, i.e., the radiation model, chemotherapy model, and the Crohn's disease model. Specifically, a candidate nutrient is orally administered to control mice and mice that received irradiation, chemotherapy, and anti-CD3 mAb, respectively. In addition, compositions containing various combinations of the candidate nutrients are orally administered.
To determine the absorptive capacity of each nutrient, bioelectric measurements are performed using an Ussing chamber. The measurements include: a) the sodium coupled-amino acid current (ISC) and changes in conductance, b) changes in saturation kinetics of each nutrient and changes in the ISC following the administration of each nutrient; and c) the electrolyte absorption studies using isotope flux studies in the presence and absence of the specific candidate nutrient.

[5] = test system: patients who have received pelvic radiation therapy; conditions: oral glutamine feeding; patients after pelvic radiation therapy; cited from earlier work
GI tract mucosa = conditions: animal studies; cited from earlier work
IR mice = conditions: lysine 20 mg/mice/day orally for 5 days, thereafter every other day
Excerpt: Gavage was used during the experiment, and treatments were given on the first 5 days after irradiation and every other day until 10 days after irradiation.

lysine-transporter = experiment: Lysine-stimulated Isc / lysine transport kinetics; format: cell-based, mice
[6] = clinical trials; cited from earlier work
[7] = oral administration, radiation, chemotherapy and Crohn's disease models
[8] = oral feeding of an irradiated subject

Compound: O=c1[nH]cc(F)c(=O)[nH]1 [5-FU, 5-fluorouracil]
- net anion secretion (transepithelial ISC) (small intestine mucosa): significant increase in net anion secretion
- toxicity to small intestine (small intestine mucosa): maximum toxicity to small intestine

Compound: CCCCNc1cc(C(=O)O)cc(S(N)(=O)=O)c1Oc1ccccc1 [bumetanide]
- HCO3^− secretion ([1]; 0 Gy + bumetanide, tissues treated with forskolin, Cl^−-free lumen solution): 8.4 ± 0.4^ μeq·h^−1·cm^−2
- HCO3^− secretion ([1]; 3 Gy + bumetanide, Cl^−-free lumen solution): 0.8 ± 0.1^ns μeq·h^−1·cm^−2
- Isc associated with IR [2]: abolished almost all of the Isc associated with IR
- basal Isc after bumetanide ([3]; 0-Gy mice, 1.6±0.2 without): 0.9±0.1 μeq·h^−1·cm^−2
- forskolin-stimulated Isc after bumetanide ([3]; 0 Gy): 1.3±0.2 μeq·h^−1·cm^−2
- forskolin-stimulated Isc after bumetanide ([3]; 3 Gy): 0.4±0.1 μeq·h^−1·cm^−2
- basal and forskolin-stimulated increase in Isc ([3]; bumetanide on bath side, Cl^−-free solution on both sides): did not inhibit basal and forskolin-stimulated increase in Isc
- basal Isc after bumetanide ([3]; irradiated (3 Gy) tissues, 5.5±0.5 without): 0.6±0.1 μeq·h^−1·cm^−2

Compound: COc1ccc(Cl)cc1C(=O)NCCc1ccc(S(=O)(=O)NC(=O)NC2CCCCC2)cc1 [glibenclamide]
- HCO3^− secretion ([1]; 0 Gy + bumetanide, tissues treated with forskolin, 100 μM blocker in lumen solution): 0.5 ± 0.1^ μeq·h^−1·cm^−2
- forskolin-stimulated HCO3^− secretion after blocker [1]: 0.1 ± 0.1^ μeq·h^−1·cm^−2
- forskolin-stimulated HCO3^− secretion after blocker ([1]; listed as Glibenclamide): 0.1±0.1 μeq·h^−1·cm^−2
- HCO3^− secretion ([1]; 0 Gy, blocker in lumen solution (100 μM DIDS or glibenclamide)): 0.5 ± 0.1^ μeq·h^−1·cm^−2
- HCO3^− secretion ([1]; 3 Gy + bumetanide, 100 μM blocker in lumen solution): 0.2 ± 0.1^ns μeq·h^−1·cm^−2
- HCO3^− secretion ([1]; 3 Gy, blocker in lumen solution / mucosal addition (100 μM DIDS or glibenclamide; NPPB)): 0.11±0.1 μeq·h^−1·cm^−2 and 0.1 ± 0.1^ns μeq·h^−1·cm^−2
- bumetanide-insensitive Isc after mucosal addition of blocker ([3]; 0-Gy mice, 10 μM NPPB, 100 μM glibenclamide): 0.1±0.01 μeq·h^−1·cm^−2

Compound: NC(=O)CC[C@H](N)C(=O)O [glutamine]
- Km of glutamine transporter (saturation kinetics) (glutamine transporter; FIG. 15): IR dose-dependent increase in Km
- glutamine-stimulated Isc (glutamine transporter; FIG. 15 legend): dose-dependent increase in glutamine-stimulated Isc
- small intestine mucosa barrier [4, 7]: impairs small intestine mucosa barrier
- survival of mice [4, 7]: has adverse effects on survival of mice
- osmotic diarrhea [4, 8]: cause osmotic diarrhea
- survival [4, 8]: reduced survival
- prevention or alleviation of acute diarrhea [5]: fail to show that oral glutamine feeding can prevent or alleviate acute diarrhea
- protection of GI tract mucosa from injury caused by chemotherapy or radiation therapy (GI tract mucosa): protects both upper and lower GI tract mucosa from injury

Compound: NCCCC[C@H](N)C(=O)O [lysine]
- survival of IR mice with oral lysine (IR mice): increased survival; also recorded: can increase survival in mice
- survival of IR mice with oral lysine (IR mice; listed as Lysine): increased survival
- Isc on addition of lysine to small intestine lumen side (lysine-transporter): causes an increase in Isc
- Km (lysine-transporter; 3 Gy IR tissues): 270 ± 10 µM
- lysine-stimulated Isc (lysine-transporter; increasing IR dose, FIG. 16 legend): dose-dependent decrease in lysine-stimulated Isc
- Km (lysine-transporter; tissues from non-IR mice): 1160 ± 40 µM
- survival [4, 8]: prolongs survival
- effect of oral administration on small intestine healing, paracellular conductance, electrolyte absorption, survival ([4]; radiation, chemotherapy and Crohn's disease models, each amino acid): improve small intestine healing, reduces paracellular conductance (thereby improving small intestine mucosal barrier mechanism), increases absorption of electrolytes, and/or improves survival in animals

Compound: sucralfate
- reduction of acute GI symptoms (diarrhea prophylaxis) [6]: only a moderate reduction of acute GI symptoms was achieved
